In patent publication US20100210554A1, “THERAPEUTIC USES OF GASTRIN- 1 AND G- PEN-GRGDSPCA” (priority 2007, published 2010):

Columns and labels:
[1] = test system: HIV-1IIIB; experiment: HIV-1 antiviral assay in CEM-SS cells (MTS readout)
[2] = test system: HCMV strain AD169; experiment: HCMV plaque formation assay in MRC-5 cells; conditions: for inhibition of HCMV plaque formation as compared to the virus control experiment: 10 micrograms per ml, 7-10 days
[3] = test system: IL-5 spleen cells; experiment: Th1/Th2 cytokine profiling assay: IL-5; type: cell-based, Balb/c mice; conditions: 10 micrograms per ml; Ovalbumin restimulation; 72 hours
Source text: (§1) The Balb/c mice (originated in 1923, it is a popular strain and is used in many different research disciplines. Also classified as an inbred from the production of 20 or more successive brother-sister matings, the Balb/c mouse is albino and small in size) were immunized on Days 1, 15, and 29 with Ovalbumin (Ovalbumin is the main protein found in egg white, commonly used to stimulate an immunological reaction in test animals) in PBS (5 micrograms/injection). On day 50, spleens of the mice were harvested (3 weeks after last boost with Ovalbumin). […] Thereafter, additional Ovalbumin was added to the cells at 10 micrograms/ml for in vitro restimulation of the cells. 72 hours later, cell supernatants were harvested and assayed using the Becton Dickinson Mouse Th1/Th2 Cytokine CBA Kit. This kit can be used to measure Interleukin-2 (IL-2), Interleukin-4 (IL-4),
(§2) Interleukin-5 (IL-5), Interferon-γ (IFN-γ), and Tumor Necrosis Factor-α (TNF-α) protein levels in a single sample. The kit performance has been optimized for analysis of physiologically relevant concentrations (pg/ml levels) of specific cytokine proteins in tissue culture supernatants and serum samples.

[4] = test system: HUVEC; experiment: Endothelial tube formation assay; conditions: 10 micrograms per ml, 20 hours, combination peptide 1:peptide 2 0.95 mole:1.05 mole
Procedure: The endothelial tube formation assay is based on the ability of endothelial cells to form three-dimensional capillary-like tubular structures when cultured on a gel of basement membrane extract. […] Pre-labeled HUVEC with Calcein AM were seeded in a 96-well culture plate coated with extracellular metrix (Chemicon international Cat. ECM625) and treated with test peptides—10 micrograms per ml—in full growth medium. Positive control was vehicle only. The endothelial cells were allowed to form tubes foe 20 hours and were then examined under an inverted fluorescent microscope. Duplicate wells for each treatment were photographed and quantitatevily analyzed for an average tubule length using image analysis software ImageProPlus. Raw data were expressed as average tubule lengths in pixels ±standard deviation. Statistic p values were computed using the Student's t-test.

[5] = test system: TNF-a spleen cells; experiment: Th1/Th2 cytokine profiling assay: TNF-a; type: cell-based, Balb/c mice; conditions: 10 micrograms per ml; Ovalbumin restimulation; 72 hours
Source text: as §1, §2

[6] = test system: IL-2 spleen cells; experiment: Th1/Th2 cytokine profiling assay: IL-2; type: cell-based, Balb/c mice; conditions: 10 micrograms per ml; Ovalbumin restimulation; 72 hours
Source text: as §1, §2

[7] = test system: IL-4 spleen cells; experiment: Th1/Th2 cytokine profiling assay: IL-4; type: cell-based, Balb/c mice; conditions: 10 micrograms per ml; Ovalbumin restimulation; 72 hours
Source text: as §1, §2

[8] = test system: hepatitis B virus (HBV) ayw strain; experiment: HBV experimental assay system (HepG2-2.2.15, TaqMan PCR of secreted HBV DNA); type: cell-based; conditions: 10 micrograms per ml, six days
[9] = test system: Primary Human endothelial cells (HUVEC); experiment: Endothelial cell migration assay; conditions: 10 micrograms per ml, 22 hours
Procedure: Primary Human endothelial cells (HUVEC) were seeded in insert chambers with 3 micrometer pore size of multi-transwell plate for 6 hours at 37° C. in Endothelial Cell Basal Medium (EBM) supplemented with 0.1% bovine serum albumin. Thereafter, designated concentration of testing peptides—10 micrograms per ml—was added in duplicate wells. The endothelia were allowed to migrate for 22 hours at 37° C., then, migrated cells were fixed and stained with Hoechst 33342 dye. Images of 3 fields per insert were taken and the number of migrated cells per field were quantified using the ImageProPlus software. Data were analyzed for the average number of the migrated cells and standard deviation of six data points for each treatment condition. […] Statistic p values were computed using the Student's t-test.

[10] = test system: IFNγ spleen cells; experiment: Th1/Th2 cytokine profiling assay: IFNγ; type: cell-based, Balb/c mice; conditions: 10 micrograms per ml; Ovalbumin restimulation; 72 hours
Source text: as §1, §2

Row | Compound | antiviral activity of positive control compounds (HIV-1) [1] | antiviral activity of positive control compound (HCMV) ([2]; positive control) | IL-5 spleen cells; TH2 response (% of control) [3] | inhibition of the tube formation of endothelial cells [4] [%] | TNF-a spleen cells; TH1 response (% of control) [5] | IL-2 spleen cells (% of control) [6] | inhibition of HCMV plaque formation as compared to the virus control experiment [2] | IL-4 spleen cells; TH2 response (% of control) [7] | inhibition of HBV replication as compared to the virus control infection [8] [%] | inhibition of the migration of human endothelial cells [9] [%] | IFNγ spleen cells; TH1 response (% of control) [10]
1 | Cc1cn([C@H]2C[C@H](N=[N+]=[N-])[C@@H](CO)O2)c(=O)[nH]c1=O [AZT] | expected levels of antiviral activity |  |  |  |  |  |  |  |  |  | 
2 | Nc1nc(O)c2ncn(COC(CO)CO)c2n1 [Ganciclovir, reference compound] |  | expected levels of antiviral activity |  |  |  |  |  |  |  |  | 
3 | CC(C)(C)NC(=O)[C@@H]1CN(Cc2cccnc2)CCN1C[C@@H](O)C[C@@H](Cc1ccccc1)C(=O)N[C@H]1c2ccccc2C[C@H]1O [indinavir] | expected levels of antiviral activity |  |  |  |  |  |  |  |  |  | 
4 | Gly-Pen-Gly-Arg-Gly-Asp-Ser-Pro-Cys-Ala-OH [peptide 2] |  |  | 55.0 % of control | 22 | 117.6 % of control | 110.7 % of control | did not inhibit | 117.2 % of control | 23.9 | 51 | 77.3 % of control
5 | Pyr-Gly-Pro-Trp-Leu-Glu-Glu-Glu-Glu-Glu-Ala-Tyr-Gly-Trp-Met-Asp-Phe-NH2 [peptide 1] |  |  | 61.2 % of control | 35 | 106.3 % of control | 101.6 % of control | did not inhibit | 61.5 % of control | 17.4 | 30 | 52.4 % of control
